Assay results published in paper PMC8838189, “Thiazolidinedione Derivatives: In Silico, In Vitro, In Vivo, Antioxidant and Anti-Diabetic Evaluation” (Molecules, 2022).

Legend:
[1] = system: alloxan-induced diabetic rat model; experiment: Oral anti-hyperglycemic activity, blood glucose level in alloxan-induced diabetic rat model; format: in vivo, Albino male Wistar rats
Description: Albino male Wistar rats (150 ± 20 g) were obtained. (Supplementary Materials).
The animals were kept fasting overnight (12 h) before induction of diabetes. Diabetes was induced in rats as reported and (Supplementary Materials).
Blood samples were obtained from the tail vein of all rats, the blood glucose levels (BGLs) were measured and monitored in all treatment groups at days 0 (basal), 2, 4, 15 and 30 as reported.
Oral anti-hyperglycemic activity was evaluated for compounds 4–7 by an alloxan-induced diabetic rat model. […] The BGL was monitored for each tested compound at three different doses (50,100 and 250 mg/Kg) and for five experimental period durations (0, 2, 4, 15, 30 days). […]
The animals were kept fasting overnight (12 h) before induction of diabetes. […]

[2] = system: alloxan-induced diabetic rat model; experiment: Serum lipid profile (CH, TG, HDL, LDL, VLDL) in alloxan-induced diabetic rats; format: in vivo, Albino male Wistar rats; settings: 50 mg/Kg; for Serum CH (cholesterol) level: all experimental times
Description: The blood samples (0.5 mL) were withdrawn from each rat using the retro-orbital plexus and the other steps for biochemical analysis were adapted. (Supplementary Materials).
The serious side effect related to diabetes is hyperlipidemia. The insulin deficiency promotes adipocytes to generate fatty acid, hepatic phospholipids and cholesterol. Thus, the levels of cholesterol (CH), triglyceride (TG), high (HDL), low (LDL) and very low (VLDL) density lipoproteins, in serum for alloxan-loaded diabetes have been measured at 50 mg/Kg concentration (Figure 7). All lipid parameters for all tested compounds have (p < 0.05) compared to the diabetic control group (Figure 7).
Figure 7 The level of (A) CH (Cholesterol); (B) TG (Triglyceride); (C) HDL (High density lipoprotein); (D) LDL (Low density lipoprotein) and (E) VLDL (Very low density lipoprotein) in serum of hyperglycemic loaded rats. […] Data analyzed by one way ANOVA followed by LSD test and expressed as mean ± SEM from five observations. […]
glucose level of rats was determined using glucose strips. Rats with plasma glucose concentration N 300 mg/dl (Gadadare et al., 2015) were considered diabetic and included […]
The blood samples (0.5 ml) were withdrawn from the retro-orbital plexus of each rat under mild anesthesia using a glass capillary tube after fasting for 6 h. Blood samples were centrifuged at 3000 rpm for 15 min. The serum was kept at −80 °C until analyzed. Speciﬁc reagent kits were used to determine levels of serum triglyceride (TG), serum cholesterol (CH), serum low density lipoproteins (LDL), serum high density lipoproteins (HDL) for assessing the lipid proﬁle.
Data are expressed as mean ± S.E. Data analysis was done using one way analysis of variance (ANOVA) followed by least significant difference (LSD) test for multiple comparisons. Difference was considered significant when p is less than 0.05. SPSS (version 11) program was used to carry out

[3] = target: α-amylase enzyme; experiment: In vitro inhibition of α-amylase assay; format: biochemical; settings: six concentrations 5-40 µg/mL, non-linear regression; read-out: IC50 against α-amylase enzyme (converted)
Sequence of α-amylase enzyme (P04746 16-511): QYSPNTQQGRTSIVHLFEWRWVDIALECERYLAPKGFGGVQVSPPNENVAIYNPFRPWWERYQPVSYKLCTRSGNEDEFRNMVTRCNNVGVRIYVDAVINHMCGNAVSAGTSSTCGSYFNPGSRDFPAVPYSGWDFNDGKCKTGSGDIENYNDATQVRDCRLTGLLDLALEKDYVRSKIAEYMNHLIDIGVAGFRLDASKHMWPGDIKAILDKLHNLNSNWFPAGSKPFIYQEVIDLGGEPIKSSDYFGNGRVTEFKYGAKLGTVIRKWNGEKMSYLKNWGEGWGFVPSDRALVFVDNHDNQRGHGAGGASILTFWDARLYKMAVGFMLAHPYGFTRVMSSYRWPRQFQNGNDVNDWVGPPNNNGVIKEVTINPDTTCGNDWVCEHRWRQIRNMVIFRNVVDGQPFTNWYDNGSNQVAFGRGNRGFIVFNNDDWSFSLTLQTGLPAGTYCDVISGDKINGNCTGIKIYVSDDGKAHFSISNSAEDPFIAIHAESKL
Description: - inhibition in-vitro of α-Amylase assay:
The α-amylase activity of the compounds were determined using a method in which 250 μL of each compound, or Metformin .HCl, dissolved in ethanol to obtain different concentrations (5, 10, 15, 20,30 and 40 μg/mL ), was mixed with 500 μL of α-amylase (2 U/mL ) in phosphate buffer (100 mM, pH 6.8) and incubated at 37 °C for 10 min. Thereafter, 50 μL
(1 picture or pasted object on this page, not shown here) […]
of 1% starch, dissolved in the same buffer, was added to the mixture and the samples were incubated again at 37 °C. After 30 min, dinitrosalicylic acid (DNS) colour reagent (1 mL) was added. The (DNS) was prepared by adding 437mg of 3,5- dinitro salicylic acid in 20 mL distilled water to12 g of sodium potassium tartrate in 8 mL of 2 M NaOH, then added distilled water until the solution reach to 40 mL ). the samples were boiled for 10 min in water bath. For non-enzymatic reactions, the assays were performed with a blank containing all of the components except the enzyme.

[4] = Radical scavenging by DPPH method; settings: DPPH assay
Description: The assay of 2,2-Diphenyl-1-picrylhydrazyl radical (DPPH) was performed according to the method at.
The antioxidant activity was examined for the hybrids (4–7) using the stable DPPH assay. The antioxidant results from different concentrations (0.16, 0.8, 4, 20, 40, 200 and 1000 µg/mL) were represented in Figure 5 as IC50 value (concentration of compound is essential for rising 50% of reducing power for H-donating or radical scavenging). The effect of the scavenging is rising in the trend 4 > 5 > 6 > STD > 7. […] After blocking the hydrazide group by aldehyde motifs in compounds 6 and 7, the activity was decreased. High scavenging activity may be due to the stabilization of the lone pair in the conjugated system by the presence of terminal ester or hydrazide.

CCOC(=O)CN1C(=O)SC(=Cc2ccc3c(c2)OCO3)C1=O [Compound 4, Ethyl-2-(5-(benzo[d][1,3]dioxol-5-ylmethylene)-2,4-dioxothiazolidin-3-yl)acetate]
Blood glucose level (BGL) compared to DC ([1]; 50 mg/Kg, 2nd, 4th and 15th days): suffered from controlling the BGL
Blood glucose level (BGL) compared to DC ([1]; 100 mg/Kg, 15th and 30th days): significance decrease in the BGL
Blood glucose level (BGL) compared to DC ([1]; 250 mg/Kg, all durations of the experiment): failed to control BGL
Serum VLDL level, regulation to nearly normal value ([2]; 0th and 15th days): failed to do so
Serum TG (triglyceride) level compared to DC ([2]; 2nd day): failed to regulate the TG level lower than the DC level
Serum VLDL level ([2]; 2nd, 14th and 30th days): nearly normal value
Serum CH (cholesterol) level [2]: moderate regulation of the CH value

NNC(=O)CN1C(=O)SC(=Cc2ccc3c(c2)OCO3)C1=O [Compound 5, 2-(5-(Benzo[d][1,3]dioxol-5-ylmethylene)-2,4-dioxothiazolidin-3-yl)acetohydrazide]
Blood glucose level (BGL) compared to DC ([1]; 100 mg/Kg, 15th and 30th days): significance decrease in the BGL
Blood glucose level (BGL) regulation ([1]; 250 mg/Kg, 15th and 30th days): organized the BGL more than 6
Serum CH (cholesterol) level reduction ([2]; 2nd day): moderate reduction value
Serum CH (cholesterol) level reduction ([2]; 15th and 30th days): best reduction of the CH level
Serum VLDL level ([2]; 15th and 30th days): lower than normal value

5-(Benzo[d][1,3]dioxol-5-ylmethylene)-3-(2-(2,4-dioxo thiazolidin-3-yl) acetyl) thiazolidine-2,4-dione [Compound 6]
Blood glucose level (BGL) compared to DC ([1]; 50 mg/Kg, 2nd and 4th days): suffered from controlling the BGL
Blood glucose level (BGL) compared to DC ([1]; 100 mg/Kg, all of the experiments): increased the BGL rather than DC
Serum CH (cholesterol) level reduction ([2]; 2nd and 4th days): moderate reduction
Serum CH (cholesterol) level reduction ([2]; 15th and 30th days): best reduction of the CH level
Serum VLDL level ([2]; 15th and 30th days): lower than normal value

COc1ccc(/C=N/NC(=O)CN2C(=O)S/C(=C/c3ccc4c(c3)OCO4)C2=O)cc1 [Compound 7]
IC50 [3]: 130 µM
Antioxidant (scavenging) activity compared to STD (ascorbic acid) [4]: lower scavenging activity than STD
Blood glucose level (BGL) reduction ([1]; 50 mg/Kg, 15th and 30th days): highest percentage in the BGL reduction
Blood glucose level (BGL) compared to DC ([1]; 100 mg/Kg, 15th and 30th days): insignificant decrease in the BGL
Blood glucose level (BGL) compared to DC ([1]; 250 mg/Kg, 4th, 15th and 30th days): reduced BGL significantly
Serum CH (cholesterol) level [2]: worst CH level from all compounds
